# Results as given in patent US7138361B2, “Herbicidal heterocycles” (E. I. du Pont de Nemours and Company, priority 2000, dated 2006).
# Experiments:
# Test in all cases: Test C preemergence
# Format in all cases: in vivo
# Sunflower = details: scale 0 to 100
# [1] = system: morningglory (Ipomoea hederacea); details: for Plant response rating (0 to 100), Morningglory: visual evaluation after 12 to 14 days
# Method in brief: (§1)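 Compounds in non-phytotoxic solvent with surfactant applied preemergence to planted seeds and postemergence to plants at 1- to 4-leaf stage (2–18 cm). Kept in greenhouse 12–14 days, then visually rated against controls on a 0 (no effect) to 100 (complete control) scale.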
# [2] = system: goosegrass (Eleusine indica); details: for Plant response rating (0 to 100), Goosegrass: visual evaluation after 12 to 14 days
# Method in brief: as §1
# [3] = system: crabgrass (Digitaria sanguinalis); details: for Plant response rating (0 to 100), Crabgrass: visual evaluation after 12 to 14 days
# Method in brief: as §1
# [4] = system: yellow nutsedge (Cyperus esculentus); details: for Plant response rating (0 to 100), Nutsedge: visual evaluation after 12 to 14 days
# Method in brief: as §1
# [5] = Rate 62 g/ha, scale 0 to 100, 0 no effect, 100 complete control
# [6] = preemergence, Rate 16 g/ha, scale 0 to 100
# [7] = preemergence, Rate 31 g/ha, scale 0 to 100
# [8] = preemergence, Rate 125 g/ha, scale 0 to 100, 0 no effect, 100 complete control
# [9] = Rate 125 g/ha, scale 0 to 100, 0 no effect, 100 complete control
# [10] = preemergence, Rate 62 g/ha, scale 0 to 100
# [11] = preemergence, Rate 250 g/ha, scale 0 to 100, 0 no effect, 100 complete control
# [12] = Preemergence, Rate 500 g/ha, scale 0 to 100
Structure (SMILES),"Plant response rating, Morningglory [1, 5]","Plant response rating, Morningglory [1, 8]","Plant response rating, Goosegrass [2, 5]","Plant response rating, Goosegrass [2, 8]","Plant response rating, Crabgrass [3, 5]","Plant response rating, Crabgrass [3, 8]","Plant response rating, Nutsedge [4, 5]","Plant response rating, Nutsedge [4, 8]","Plant response rating, Morningglory [1, 9]","Plant response rating, Morningglory [1, 11]","Plant response rating, Goosegrass [2, 9]","Plant response rating, Crabgrass [3, 9]","Plant response rating, Nutsedge [4, 9]","Plant response rating, Nutsedge [4, 11]","Plant response rating (0 to 100), Goosegrass ([2]; preemergence, Rate 250 g/ha)","Plant response rating (0 to 100), Goosegrass ([2]; preemergence, Rate 500 g/ha)","Plant response rating (0 to 100), Crabgrass ([3]; preemergence, Rate 250 g/ha)","Plant response rating (0 to 100), Crabgrass ([3]; preemergence, Rate 500 g/ha)","Plant response rating (0 to 100), Nutsedge ([4]; preemergence, Rate 500 g/ha)","Plant response rating (0 to 100), Morningglory ([1]; preemergence, Rate 500 g/ha)",further results
CC(C)(C)c1ccn(C2CCN(c3cccc(Cl)c3)C2=O)n1 (stereo not drawn) [Compound 43],0,0,50,90,40,90,0,30,,,,,,,,,,,,,"Plant response rating, Sunflower (Sunflower; Rate 16 g/ha): 0; Plant response rating, Sunflower (Sunflower; Rate 31 g/ha): 0; Plant response rating, Morningglory [1, 6]: 0; Plant response rating, Morningglory [1, 7]: 0; Plant response rating, Goosegrass [2, 6]: 0; Plant response rating, Goosegrass [2, 7]: 0; Plant response rating, Crabgrass [3, 6]: 0; Plant response rating, Crabgrass [3, 7]: 20; Plant response rating, Nutsedge [4, 6]: 0; Plant response rating, Nutsedge [4, 7]: 0"
CC(C)(C)c1ccn(C2CCN(c3cccc([S+]([O-])C(F)(F)F)c3)C2=O)n1 (stereo not drawn) [Compound 101],,,,,,,,,0,100,100,100,0,0,,,,,,,"Plant response rating, Sunflower (Sunflower; Rate 31 g/ha): 0; Plant response rating, Sunflower (Sunflower; Rate 62 g/ha): 0; Plant response rating, Morningglory [1, 7]: 0; Plant response rating, Morningglory [1, 10]: 0; Plant response rating, Goosegrass [2, 7]: 10; Plant response rating, Goosegrass [2, 10]: 100; Plant response rating, Goosegrass [2, 11]: 100; Plant response rating, Crabgrass [3, 7]: 90; Plant response rating, Crabgrass [3, 10]: 100; Plant response rating, Crabgrass [3, 11]: 100; Plant response rating, Nutsedge [4, 7]: 0; Plant response rating, Nutsedge [4, 10]: 0"
CSc1cccc(N2CCC(n3ccc(C(C)(C)C)n3)C2=O)c1 (stereo not drawn) [Compound 86],,,,,,,,,0,0,90,90,0,0,100,100,100,100,0,,"Plant response rating, Sunflower (Sunflower; Rate 62 g/ha): 0; Plant response rating, Morningglory [1, 10]: 0; Plant response rating, Goosegrass [2, 10]: 100; Plant response rating, Crabgrass [3, 10]: 0; Plant response rating, Nutsedge [4, 10]: 0"
CCOC(=O)c1cccc(N2CCC(n3ccc(C(C)(C)C)n3)C2=O)c1 (stereo not drawn) [Compound 72],0,30,20,70,90,100,0,0,,10,,,,20,80,90,100,100,20,100,
CC(C)(C)c1ccn(C2CCN(c3cccc(OC(F)F)c3)C2=O)n1 (stereo not drawn) [Compound 76],10,,100,,100,,0,,30,30,100,100,0,20,100,100,100,100,20,30,
CC1(c2ccn(C3SCN(c4cccc(OC(F)(F)F)c4)C3=O)n2)CC1 (stereo not drawn) [Compound 63],0,20,100,100,100,100,0,0,,30,,,,20,100,100,100,100,100,40,
CC(C)Oc1cccc(N2CCC(n3ccc(C(C)C)n3)C2=O)c1 (stereo not drawn) [Compound 82],20,,90,,100,,0,,10,20,100,100,0,10,100,100,100,100,40,80,
CC1(c2ccn(C3SCN(c4cccc(C(F)(F)F)c4)C3=O)n2)CC1 (stereo not drawn) [Compound 64],40,40,100,100,100,100,0,0,,40,,,,50,100,100,100,100,50,60,
CCC(C)c1ccn(C2OCN(c3cccc(OC(F)(F)F)c3)C2=O)n1 (stereo not drawn) [Compound 67],0,0,100,100,100,100,0,40,,0,,,,0,100,100,100,100,20,20,
CC(C)(C)c1ccn(C2CCN(c3ccc(F)c(Br)c3)C2=O)n1 (stereo not drawn) [Compound 75],0,,90,,90,,0,,0,0,100,100,0,50,100,100,100,100,50,0,
CC(C)c1ccn(C2SCN(c3cccc(OC(F)F)c3)C2=O)n1 (stereo not drawn) [Compound 44],0,0,90,100,100,100,0,30,,,,,,,100,,100,,,,"Plant response rating, Morningglory [1, 12]: 40; Plant response rating (0 to 100), Morningglory ([1]; preemergence, Rate 250 g/ha): 20; Plant response rating, Goosegrass [2, 12]: 100; Plant response rating, Crabgrass [3, 12]: 100; Plant response rating, Nutsedge [4, 12]: 100; Plant response rating (0 to 100), Nutsedge ([4]; preemergence, Rate 250 g/ha): 60"
O=C1C(n2ccc(C3CCC3)n2)SCN1c1cccc(OC(F)F)c1 (stereo not drawn) [Compound 45],0,0,90,100,90,100,,0,,,,,,,100,,100,,,,"Plant response rating, Morningglory [1, 12]: 0; Plant response rating (0 to 100), Morningglory ([1]; preemergence, Rate 250 g/ha): 0; Plant response rating, Goosegrass [2, 12]: 100; Plant response rating, Crabgrass [3, 12]: 100; Plant response rating, Nutsedge [4, 12]: 100; Plant response rating (0 to 100), Nutsedge ([4]; preemergence, Rate 250 g/ha): 60"
